# Laboratory results published in publication PMC11062899, “De novo development of small cyclic peptides that are orally bioavailable” (Nature Chemical Biology, 2023).
# “And” between values parts separate entries of the source, which are not always exact repeats. Identical values can stand only once. Like-named read-outs stand apart in the source and are kept apart here.
# Tests used:
# porcine pepsin = molecular target: T1, porcine pepsin (Sus scrofa, UniProt P00791); test: Peptide stability in simulated gastric fluid (SGF); assay type: in vitro ADME; parameters: remaining at 8 h: dose or concentration left out as unconfirmed; details: for remaining at 8 h: pH 1.2
# T1 construct: 0.32 g of porcine pepsin (Sigma-Aldrich, P7125) was dissolved under gentle agitation; purchased Sigma-Aldrich P7125
# T1 sequence (P00791 60-385): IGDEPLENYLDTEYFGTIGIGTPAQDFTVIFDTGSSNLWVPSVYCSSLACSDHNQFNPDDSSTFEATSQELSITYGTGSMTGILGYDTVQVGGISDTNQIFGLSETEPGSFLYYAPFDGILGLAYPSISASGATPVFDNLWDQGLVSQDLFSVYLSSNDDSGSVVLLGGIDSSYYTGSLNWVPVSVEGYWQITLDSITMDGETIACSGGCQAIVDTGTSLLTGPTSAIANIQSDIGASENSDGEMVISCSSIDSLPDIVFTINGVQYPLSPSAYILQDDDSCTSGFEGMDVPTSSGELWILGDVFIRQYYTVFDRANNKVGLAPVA
# Procedure, shortened: (§1)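 Peptide from a 1 mM DMSO stock was added to fluid pre-warmed at 37 °C. SGF was pH 1.2 NaCl with porcine pepsin (0.32 g per 100 ml), and SIF was pH 6.8 potassium phosphate with porcine pancreatin (1 g per 100 ml). Supernatant peptide was quantified by LC–MS, with residual expressed as T1/T0.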
# porcine pancreatin = test: Peptide stability in simulated intestinal fluid (SIF); assay type: in vitro ADME; details: after 8 h vs 0 h (TIC); average of R1-R3
# Procedure, shortened: as §1
# [1] = as above; assay type: in vitro ADME, porcine; details: simulated gi fluid; 8 h, 37 °C, pH 6.8; read-out: Proteolytic stability: SIF (8 h) % remaining
# Procedure, shortened: as §1
# rat α-thrombin = molecular target: T2, rat α-thrombin (Rattus norvegicus, UniProt P18292); test: Protease inhibition, Ki for rat α-thrombin (fluorogenic substrate Z-Gly-Gly-Arg-AMC); assay type: biochemical; details: for Slope normalized to DMSO (proteolytic substrate cleavage over time) / Rat alpha thrombin inhibition, slope normalized to DMSO: replicates R1-R3
# T2 construct: rat α-thrombin (Molecular Innovations) were used at final concentrations of 2 nM and 3 nM; purchased Molecular Innovations
# Procedure, shortened: (§2)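 Ki values come from Cheng–Prusoff correction of IC50, itself fitted by four-parameter logistic regression of activity versus a no-peptide control. Assays used 2 nM human or 3 nM rat thrombin, 50 μM Z-Gly-Gly-Arg-AMC, 30 min kinetic fluorescence at 25 °C.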
# human α-thrombin = human α-thrombin (Homo sapiens, UniProt P00734); test: Protease inhibition, Ki for human α-thrombin (fluorogenic substrate Z-Gly-Gly-Arg-AMC); assay type: biochemical; details: for Human alpha thrombin inhibition, slope normalized to DMSO: replicates R1-R3
# Procedure, shortened: as §2
# [2] = Passive artificial membrane permeability (PAMPA)
# [3] = peptide 1.33E+02 uM, slope of proteolytic substrate cleavage over time
structure (smiles),measurement,setting,value
O=C1C[C@H]2CCCN2C(=O)[C@H](Cc2ccccc2)NC(=O)[C@@H](NC(=O)c2ccc(Cl)s2)CSCCS(=O)(=O)CCSCCN1 [peptide 11],"SGF stability, Residual peptide","porcine pepsin; after 8 h vs 0 h (TIC), single replicates R1-R3",36.24 and 43.40 and 29.72
same,remaining at 8 h,"porcine pepsin; pig, simulated gastric fluid (SGF, USP) with porcine pepsin, after 8 h vs 0 h (TIC), average of R1-R3, read-out: SGF stability, Residual peptide Average",36.5%
same,remaining at 8 h,"porcine pepsin; simulated gi fluid, 8 h, 37 °C, read-out: Proteolytic stability: SGF (8 h) % remaining",36 ± 7%
same,"SIF stability, Residual peptide Average",porcine pancreatin,14.00
same,remaining at 8 h,[1],14 ± 4.4%
same,Ki,"rat α-thrombin; average of R1-R3, read-out: Ki Average",36.8 nM
same,Slope normalized to DMSO (proteolytic substrate cleavage over time),rat α-thrombin; peptide 1.02E-03 uM,94.9 and 90.5 and 126.3
same,Slope normalized to DMSO (proteolytic substrate cleavage over time),rat α-thrombin; peptide 1.04E+00 uM,9.4 and 10.0 and 7.6
same,Slope normalized to DMSO (proteolytic substrate cleavage over time),rat α-thrombin; peptide 1.27E-04 uM,95.1 and 96.6 and 96.3
same,Slope normalized to DMSO (proteolytic substrate cleavage over time),rat α-thrombin; peptide 1.30E-01 uM,36.1 and 35.6 and 32.6
same,"Rat alpha thrombin inhibition, slope normalized to DMSO",rat α-thrombin; [3],7.9 and 5.3 and 6.2
same,Slope normalized to DMSO (proteolytic substrate cleavage over time),rat α-thrombin; peptide 1.63E-02 uM,78.2 and 76.9 and 78.3
same,"Rat alpha thrombin inhibition, slope normalized to DMSO",rat α-thrombin; peptide 1.67E+01 uM,4.9 and 5.1 and 4.0
same,Slope normalized to DMSO (proteolytic substrate cleavage over time),rat α-thrombin; peptide 2.03E-03 uM,89.6 and 92.6 and 90.5
same,"Rat alpha thrombin inhibition, slope normalized to DMSO",rat α-thrombin; peptide 2.08E+00 uM,5.8 and 4.5 and 4.3
same,Slope normalized to DMSO (proteolytic substrate cleavage over time),rat α-thrombin; peptide 2.54E-04 uM,95.9 and 93.5 and 98.7
same,Slope normalized to DMSO (proteolytic substrate cleavage over time),rat α-thrombin; peptide 2.60E-01 uM,24.9 and 24.5 and 24.7
same,Slope normalized to DMSO (proteolytic substrate cleavage over time),rat α-thrombin; peptide 3.18E-05 uM,97.8 and 96.7 and 99.3
same,Slope normalized to DMSO (proteolytic substrate cleavage over time),rat α-thrombin; peptide 3.26E-02 uM,68.3 and 65.8 and 66.5
same,"Rat alpha thrombin inhibition, slope normalized to DMSO",rat α-thrombin; peptide 3.33E+01 uM,4.3 and 4.0 and 4.9
same,Slope normalized to DMSO (proteolytic substrate cleavage over time),rat α-thrombin; peptide 4.07E-03 uM,90.1 and 88.8 and 91.4
same,"Rat alpha thrombin inhibition, slope normalized to DMSO",rat α-thrombin; peptide 4.17E+00 uM,4.1 and 2.6 and 2.8
same,Slope normalized to DMSO (proteolytic substrate cleavage over time),rat α-thrombin; peptide 5.09E-04 uM,95.0 and 94.4 and 95.5
same,Slope normalized to DMSO (proteolytic substrate cleavage over time),rat α-thrombin; peptide 5.21E-01 uM,15.5 and 14.5
same,Slope normalized to DMSO (proteolytic substrate cleavage over time),rat α-thrombin; peptide 6.36E-05 uM,97.1 and 98.7 and 90.6
same,Slope normalized to DMSO (proteolytic substrate cleavage over time),rat α-thrombin; peptide 6.51E-02 uM,52.7 and 50.7 and 50.5
same,"Rat alpha thrombin inhibition, slope normalized to DMSO",rat α-thrombin; peptide 6.67E+01 uM,3.6 and 3.0 and 1.8
same,Slope normalized to DMSO (proteolytic substrate cleavage over time),rat α-thrombin; peptide 8.14E-03 uM,84.4
same,"Rat alpha thrombin inhibition, slope normalized to DMSO",rat α-thrombin; peptide 8.33E+00 uM,4.9 (2×) and 4.3
same,IC50,"rat α-thrombin; single replicates R1-R3, read-out: IC50",71.7 nM and 68.3 nM and 59.7 nM
same,Ki,"rat α-thrombin; single replicates R1-R3, read-out: Ki",39.7 nM and 37.8 nM and 33 nM (2×)
same,IC50,"human α-thrombin; human alpha thrombin, individual replicates R1-R3, read-out: IC50",122 nM and 107 nM and 104 nM
same,Ki,"human α-thrombin; human alpha thrombin, individual replicates R1-R3, read-out: Ki",94.1 nM and 82.8 nM and 80.4 nM
same,Ki,"human α-thrombin; human alpha thrombin, average of R1-R3, read-out: Ki Average",85.8 nM
same,"Human alpha thrombin inhibition, slope normalized to DMSO",human α-thrombin; peptide 1.02E-03 uM,92.7 and 96.3 and 98.1
same,"Human alpha thrombin inhibition, slope normalized to DMSO",human α-thrombin; peptide 1.04E+00 uM,14.1 and 15.4 and 19.5
same,"Human alpha thrombin inhibition, slope normalized to DMSO",human α-thrombin; peptide 1.27E-04 uM,98.4 and 100.1 and 101.4
same,"Human alpha thrombin inhibition, slope normalized to DMSO",human α-thrombin; peptide 1.30E-01 uM,51.2 and 52.1 and 48.8
same,"Human alpha thrombin inhibition, slope normalized to DMSO",human α-thrombin; [3],8.1 and 8.7 and 9.0
same,"Human alpha thrombin inhibition, slope normalized to DMSO",human α-thrombin; peptide 1.63E-02 uM,87.3 and 78.8 and 85.1
same,"Human alpha thrombin inhibition, slope normalized to DMSO",human α-thrombin; peptide 1.67E+01 uM,9.8 and 9.6 and 8.8
same,"Human alpha thrombin inhibition, slope normalized to DMSO",human α-thrombin; peptide 2.03E-03 uM,100.0 and 90.9 and 98.1
same,"Human alpha thrombin inhibition, slope normalized to DMSO",human α-thrombin; peptide 2.08E+00 uM,10.6 and 11.3 and 7.9
same,"Human alpha thrombin inhibition, slope normalized to DMSO",human α-thrombin; peptide 2.54E-04 uM,99.0 and 98.6 and 98.3
same,"Human alpha thrombin inhibition, slope normalized to DMSO",human α-thrombin; peptide 2.60E-01 uM,38.3 and 36.0 and 36.6
same,"Human alpha thrombin inhibition, slope normalized to DMSO",human α-thrombin; peptide 3.18E-05 uM,100.0 and 103.6 and 101.9
same,"Human alpha thrombin inhibition, slope normalized to DMSO",human α-thrombin; peptide 3.26E-02 uM,77.4 and 76.3
same,"Human alpha thrombin inhibition, slope normalized to DMSO",human α-thrombin; peptide 3.33E+01 uM,8.8 and 8.2 and 6.8
same,"Human alpha thrombin inhibition, slope normalized to DMSO",human α-thrombin; peptide 4.07E-03 uM,95.6 and 92.2 and 94.3
same,"Human alpha thrombin inhibition, slope normalized to DMSO",human α-thrombin; peptide 4.17E+00 uM,-2.0 and 6.9 and 2.0
same,"Human alpha thrombin inhibition, slope normalized to DMSO",human α-thrombin; peptide 5.09E-04 uM,98.9 and 97.6 and 107.7
same,"Human alpha thrombin inhibition, slope normalized to DMSO",human α-thrombin; peptide 5.21E-01 uM,24.9 and 24.6 and 25.0
same,"Human alpha thrombin inhibition, slope normalized to DMSO",human α-thrombin; peptide 6.36E-05 uM,101.3 and 99.0 and 104.0
same,"Human alpha thrombin inhibition, slope normalized to DMSO",human α-thrombin; peptide 6.51E-02 uM,65.9 and 65.1 and 64.6
same,"Human alpha thrombin inhibition, slope normalized to DMSO",human α-thrombin; peptide 6.67E+01 uM,8.2 and 10.4 and 4.8
same,"Human alpha thrombin inhibition, slope normalized to DMSO",human α-thrombin; peptide 8.14E-03 uM,92.7 and 91.1 and 94.4
same,"Human alpha thrombin inhibition, slope normalized to DMSO",human α-thrombin; peptide 8.33E+00 uM,14.8 and 11.1
same,Ki,"human α-thrombin; purified peptide, mean and s.d. of three measurements, read-out: Ki human α-thrombin",82 ± 10 nM
same,Ki,"human α-thrombin; single replicates R1-R3, read-out: Ki (nM), human alpha thrombin inhibition",94.1 nM and 82.8 nM and 80.4 nM
same,PAMPA permeability: % permeability,"[2]; 50 μM, 12–18 h, acceptor concentration relative to equilibrium",1.23 ± 0.72%
same,Papp at 50 μM,"[2]; PAMPA, pH 7.4",0.0708 ×10⁻⁶ cm/s
same,Permeability% Average,"[2]; PAMPA, average of R1-R3",1.2%
same,Permeability% R1,"[2]; PAMPA, replicate R1, TIC of top well sample relative to sample at theoretical equilibrium",0.47%
same,Permeability% R3,"[2]; PAMPA, replicate R3, TIC of top well sample relative to sample at theoretical equilibrium",1.91%
